# Laboratory results published in patent publication US7166611B2, “Pharmaceutical compositions having appetite suppressant activity” (priority 1997, dated 2007).
# What was measured:
# Assay type in all cases: in vivo, rat
# male Wistar rats [1] = test: Example 44 single oral dose study: water consumption
# Procedure: (§1) Sample 1 to 3 were each administered as a single oral dose to male Wistar rats. Two additional control groups received vehicle (distilled water or DMSO). Orally administered fenfluramine (7.5 mg/kg) was included as a reference standard.
# (§2) Fifty-five male Wistar rats were used for the study.
# (§3) Bodyweights, food consumption (food hopper weight) and water consumption (bottle weight) were recorded daily at the same time each day from the day of arrival until the termination of the study.
# (§4) On Day 1, the rats received a single oral (gavage) dose according to the following table:
# (§5) Groups 1–8 were dosed using a constant dose volume of 10 ml/kg and groups 9–12 were dosed using a dose volume of 1 ml/kg.
# (§6) Food and water consumption were also measured at […] after dosing on Day 1.
# (§7) The post-dose food and water consumption measurements and bodyweights at each time-point for the P57-treated animals were compared with those for the relevant, similarly-treated vehicle control group using analysis of variance followed by Williams' test for comparisons with controls.
# (§8) The data for the fenfluramine-treated animals was compared with that for the vehicle-treated control group using Student's t test.
# [2] = Example 44 single oral dose study: bodyweight
# Procedure: as §1, §2, §3, §4, §5, §7, §8
# rats = test: Bioassay of chromatographic fractions for appetite suppressant activity; settings: bioassay of fractions from silica gel chromatography
# Text: The extract may be prepared from plant material such as the stems and roots of said plants of the genus Trichocaulon or of the genus Hoodia. The genus Trichocaulon and the genus Hoodia include succulent plants growing in arid regions such as are found in Southern Africa. In one application of the invention, the active appetite suppressant extract is obtained from the species Trichocaulon piliferum. The species Trichocaulon officinale may also be used to provide an active appetite suppressant extract. In another application of the invention, the active appetite suppressant extract may be obtained from the species Hoodia currorii, Hoodia gordonii or Hoodia lugardii.
# The partially purified active extract may be dissolved in methanol, and may be further fractionated by column chromatography, employing silica gel as an adsorption medium and a chloroform/30% methanol mixture as an eluent. A plurality of different fractions may be obtained, and each may be evaluated, by suitable bioassaying procedures, to determine the appetite suppressant activity thereof.
# A fraction having appetite suppressant activity may preferably be further fractionated such as by column chromatography using silica gel as an adsorption medium and a 9:1 chloroform:methanol solvent, and the resultant sub-fractions bioassayed for their appetite suppressant activity. […]
# male Wistar rats [3] = test: Example 44 single oral dose study: food consumption
# Procedure: as §1, §2, §3, §4, §5, §6, §7, §8
# male Wistar rats [4] = test: Example 44 single oral dose study: liver histopathology; settings: for Liver (ORO stain): Hepatocyte fat - centrilobular(Total) / Liver (ORO stain): Hepatocyte fat - centrilobular, Minimal / Liver (ORO stain): No abnormalities detected / Liver: Hepatocyte necrosis - focal (Total) / Liver: Hepatocyte necrosis - focal, Minimal / Liver: No abnormalities detected (incidence) / Liver: Parenchymal inflammatory cell foci (Total) / Liver: Parenchymal inflammatory cell foci, Minimal / Liver: Portal leucocytes (Total) / Liver: Portal leucocytes, Minimal / Liver: Portal lymphoid infiltration (Total) / Liver: Portal lymphoid infiltration, Minimal: 5 examined
# Text: Following the measurements of Day 8, the animals were killed by carbon dioxide asphyxiation, and the livers excised and placed in 10% buffered formalin, prior to histology.
# Paraffin wax sections of each liver were taken at 4–5 μm and stained with haematoxylin and eosin. Additional sections were cut on a cryostat at 12 μm and stained for fat with Oil Red O (ORO).
# Histological examination was restricted to the liver.
# [5] = 2.5 and 5.0 mg/kg single oral dose
# [6] = 2.5 mg/kg single oral dose on Day 1
# [7] = 5.0 mg/kg single oral dose on Day 1
substance,measurement,setting,value
3-0-[-β-D-thevetopyranosyl-(1→4)-β-D-cymaropyranosyl-(1→4)-β-D-cymaropyranosyl]-12β-0-tigloyloxy-14-hydroxy-14β-pregn-5-en-20-one [Compound (1)],Group mean water consumption (g ± sd) between Days: 1–2,male Wistar rats [1]; 2.5 mg/kg single oral dose,32.2 ± 4.01 g
same,Group mean water consumption (g ± sd) between Days: 2–3,male Wistar rats [1]; 2.5 mg/kg single oral dose,36.1 ± 12.42 g
same,Group mean water consumption (g ± sd) between Days: 3–4,male Wistar rats [1]; 2.5 mg/kg single oral dose,38.3 ± 11.71 g
same,Group mean water consumption (g ± sd) between Days: 4–5,male Wistar rats [1]; 2.5 mg/kg single oral dose,41.5 ± 16.60 g
same,Group mean water consumption (g ± sd) between Days: 5–6,male Wistar rats [1]; 2.5 mg/kg single oral dose,34.7 ± 7.57 g
same,Group mean water consumption (g ± sd) between Days: 6–7,male Wistar rats [1]; 2.5 mg/kg single oral dose,33.0 ± 4.20 g
same,Group mean water consumption (g ± sd) between Days: 7–8,male Wistar rats [1]; 2.5 mg/kg single oral dose,35.3 ± 8.70 g
same,Group mean water consumption (g ± sd) between Days: 1–2,male Wistar rats [1]; 5.0 mg/kg single oral dose,33.9 ± 2.40 g
same,Group mean water consumption (g ± sd) between Days: 2–3,male Wistar rats [1]; 5.0 mg/kg single oral dose,31.5 ± 8.12 g
same,Group mean water consumption (g ± sd) between Days: 3–4,male Wistar rats [1]; 5.0 mg/kg single oral dose,35.1 ± 3.82 g
same,Group mean water consumption (g ± sd) between Days: 4–5,male Wistar rats [1]; 5.0 mg/kg single oral dose,37.7 ± 5.99 g
same,Group mean water consumption (g ± sd) between Days: 5–6,male Wistar rats [1]; 5.0 mg/kg single oral dose,39.5 ± 7.78 g
same,Group mean water consumption (g ± sd) between Days: 6–7,male Wistar rats [1]; 5.0 mg/kg single oral dose,37.4 ± 11.07 g
same,Group mean water consumption (g ± sd) between Days: 7–8,male Wistar rats [1]; 5.0 mg/kg single oral dose,37.8 ± 6.42 g
same,effects on water consumption,male Wistar rats [1]; [5],No statistically significant effects on water consumption
same,Group mean bodyweight (g ± sd) on Day: 2,[2]; [6],191.2 ± 11.15 g
same,Group mean bodyweight (g ± sd) on Day: 3,[2]; [6],200.0 ± 11.25 g
same,Group mean bodyweight (g ± sd) on Day: 4,[2]; [6],209.6 ± 12.28 g
same,Group mean bodyweight (g ± sd) on Day: 5,[2]; [6],219.6 ± 12.95 g
same,Group mean bodyweight (g ± sd) on Day: 6,[2]; [6],229.4 ± 13.69 g
same,Group mean bodyweight (g ± sd) on Day: 7,[2]; [6],238.4 ± 14.50 g
same,Group mean bodyweight (g ± sd) on Day: 8,[2]; [6],247.0 ± 14.35 g
same,Group mean bodyweight (g ± sd) on Day: 2,[2]; [7],192.0 ± 9.93 g
same,Group mean bodyweight (g ± sd) on Day: 3,[2]; [7],192.4 ± 9.84 g
same,Group mean bodyweight (g ± sd) on Day: 4,[2]; [7],201.0 ± 11.27 g
same,Group mean bodyweight (g ± sd) on Day: 5,[2]; [7],209.4 ± 12.70 g
same,Group mean bodyweight (g ± sd) on Day: 6,[2]; [7],219.8 ± 11.86 g
same,Group mean bodyweight (g ± sd) on Day: 7,[2]; [7],228.2 ± 12.28 g
same,Group mean bodyweight (g ± sd) on Day: 8,[2]; [7],236.0 ± 13.95 g
same,effects on bodyweights,[2]; [5],No statistically significant effects on bodyweights
same,appetite suppressant activity,rats,marked appetite suppressant activity
same,Group mean food consumption (g ± sd) between Days: 1–2,male Wistar rats [3]; 2.5 mg/kg single oral dose,26.8 ± 3.33 g
same,Group mean food consumption (g ± sd) between Days: 2–3,male Wistar rats [3]; 2.5 mg/kg single oral dose,29.1 ± 3.43 g
same,Group mean food consumption (g ± sd) between Days: 3–4,male Wistar rats [3]; 2.5 mg/kg single oral dose,31.7 ± 3.08 g
same,Group mean food consumption (g ± sd) between Days: 4–5,male Wistar rats [3]; 2.5 mg/kg single oral dose,34.0 ± 2.95 g
same,Group mean food consumption (g ± sd) between Days: 5–6,male Wistar rats [3]; 2.5 mg/kg single oral dose,34.4 ± 4.32 g
same,Group mean food consumption (g ± sd) between Days: 6–7,male Wistar rats [3]; 2.5 mg/kg single oral dose,33.1 ± 4.11 g
same,Group mean food consumption (g ± sd) between Days: 7–8,male Wistar rats [3]; 2.5 mg/kg single oral dose,34.8 ± 3.71 g
same,Group mean food consumption (g ± sd) between Days: 1–2,male Wistar rats [3]; 5.0 mg/kg single oral dose,22.1 ± 2.19 g
same,Group mean food consumption (g ± sd) between Days: 2–3,male Wistar rats [3]; 5.0 mg/kg single oral dose,21.0 ± 3.07 g
same,Group mean food consumption (g ± sd) between Days: 3–4,male Wistar rats [3]; 5.0 mg/kg single oral dose,27.6 ± 5.26 g
same,Group mean food consumption (g ± sd) between Days: 4–5,male Wistar rats [3]; 5.0 mg/kg single oral dose,30.5 ± 3.33 g
same,Group mean food consumption (g ± sd) between Days: 5–6,male Wistar rats [3]; 5.0 mg/kg single oral dose,33.0 ± 3.16 g
same,Group mean food consumption (g ± sd) between Days: 6–7,male Wistar rats [3]; 5.0 mg/kg single oral dose,32.4 ± 3.25 g
same,Group mean food consumption (g ± sd) between Days: 7–8,male Wistar rats [3]; 5.0 mg/kg single oral dose,33.0 ± 3.84 g
same,duration of reduction in food consumption,male Wistar rats [3]; 5.0 mg/kg single oral dose,48 hours post-dose
same,food consumption versus vehicle-treated animals,male Wistar rats [3]; 5.0 mg/kg single oral dose,statistically significant reductions in food consumption
same,Liver (ORO stain): Hepatocyte fat - centrilobular(Total),"male Wistar rats [4]; Group 9, 2.5 mg/kg",2
same,"Liver (ORO stain): Hepatocyte fat - centrilobular, Minimal","male Wistar rats [4]; Group 9, 2.5 mg/kg",2
same,Liver (ORO stain): No abnormalities detected,"male Wistar rats [4]; Group 9, 2.5 mg/kg",3
same,Liver: Hepatocyte necrosis - focal (Total),"male Wistar rats [4]; Group 9, 2.5 mg/kg",1
same,"Liver: Hepatocyte necrosis - focal, Minimal","male Wistar rats [4]; Group 9, 2.5 mg/kg",1
same,Liver: No abnormalities detected (incidence),"male Wistar rats [4]; Group 9, 2.5 mg/kg",0
same,Liver: Parenchymal inflammatory cell foci (Total),"male Wistar rats [4]; Group 9, 2.5 mg/kg",0
same,"Liver: Parenchymal inflammatory cell foci, Minimal","male Wistar rats [4]; Group 9, 2.5 mg/kg",0
same,Liver: Portal leucocytes (Total),"male Wistar rats [4]; Group 9, 2.5 mg/kg",1
same,"Liver: Portal leucocytes, Minimal","male Wistar rats [4]; Group 9, 2.5 mg/kg",1
same,Liver: Portal lymphoid infiltration (Total),"male Wistar rats [4]; Group 9, 2.5 mg/kg",5
same,"Liver: Portal lymphoid infiltration, Minimal","male Wistar rats [4]; Group 9, 2.5 mg/kg",5
same,Liver (ORO stain): Hepatocyte fat - centrilobular(Total),"male Wistar rats [4]; Group 10, 5 mg/kg",2
same,"Liver (ORO stain): Hepatocyte fat - centrilobular, Minimal","male Wistar rats [4]; Group 10, 5 mg/kg",2
same,Liver (ORO stain): No abnormalities detected,"male Wistar rats [4]; Group 10, 5 mg/kg",3
same,Liver: Hepatocyte necrosis - focal (Total),"male Wistar rats [4]; Group 10, 5 mg/kg",0
same,"Liver: Hepatocyte necrosis - focal, Minimal","male Wistar rats [4]; Group 10, 5 mg/kg",0
same,Liver: No abnormalities detected (incidence),"male Wistar rats [4]; Group 10, 5 mg/kg",1
same,Liver: Parenchymal inflammatory cell foci (Total),"male Wistar rats [4]; Group 10, 5 mg/kg",0
same,"Liver: Parenchymal inflammatory cell foci, Minimal","male Wistar rats [4]; Group 10, 5 mg/kg",0
same,Liver: Portal leucocytes (Total),"male Wistar rats [4]; Group 10, 5 mg/kg",0
same,"Liver: Portal leucocytes, Minimal","male Wistar rats [4]; Group 10, 5 mg/kg",0
same,Liver: Portal lymphoid infiltration (Total),"male Wistar rats [4]; Group 10, 5 mg/kg",4
same,"Liver: Portal lymphoid infiltration, Minimal","male Wistar rats [4]; Group 10, 5 mg/kg",4
same,histological examination of the liver,"male Wistar rats [4]; all doses tested, single oral dose, livers taken Day 8",No treatment-related changes were detected
